Measured values published in US4990534A, “Aralkyl esters and processes for their preparation” (priority 1987, dated 1991).
pEC50: −log10 of the molar value. Read-outs that look alike come from different tables or passages of the source.

How the values were obtained:
[1] = system: cholinergic responses (oxotremorine-induced tremor); assay: Potentiation of oxotremorine-induced tremor in rats; format: in vivo, rat (Sprague Dawley); details: for minimal effective dose: Rattus norvegicus
Protocol: Potentiation of cholinergic responses
Studies on oxotremorine-induced tremor in rats
Male rats (Sprague Dawley Alab Laboratorietjanst AB, Sollentuna, Sweden) weighing 150-180 g, 35-40 days of age, were used. The animals were allowed free access to food (R3, Ewos AB, Sodertalje, Sweden) and water until the start of the experiments. The test compounds were injected intraperitoneally (i.p.) 30 min before injection of oxotremorine into the neck (s.c.). Tremor intensity was assessed visually for a 60 min period following the injection of oxotremorine in rat housed in Macrolon cages (25×25×30 cm) (tree per cage). The treshold dose of oxotremorine for eliciting tremor in rat is 200 μg/kg.
Tremor intensity was scored using the following rating scale: 0=no tremor; 1=slight tremor (moderate, discontinuous tremor); 2=strong tremor (intense, continuous tremor involving the whole body). The animals were scored 5, 10, 15, 30 and 60 min after injection of oxotremorine. The tremor was scored for a period of 30 seconds.
The values for each observation were summed over the entire observation period (5-60 min) and their median values for each group were calculated (total median score). Mann-Whitney U-test (two-tailed) was used to determine differences between the control oxotremorine group and test groups receiving the compounds+oxotremorine. It should be noted that a control group receiving oxotremorine alone was always run concurrently with each compound tested.
The lowest dose causing a significant (p<0.05) potentiation of the oxotremorine response was determined from log-dose response curves.

[2] = system: synaptosomal uptake, noradrenalin; assay: Inhibition of synaptosomal uptake of noradrenalin; format: biochemical; details: rat cerebral cortex synaptosomes, 50 nM [3H]noradrenaline, pH 7.4, 37° C.
Protocol: (§1) Inhibition of the Synaptosomal Uptake of Monoamines
(§2) Crude synaptosome preparations from rat cerebral cortex were made by homogenizing the tissues in 10 volumes of ice-cold 0.32M sucrose with all-glass Potter'-Elvehjem's homogenizers. The homogenates were centrifuged at 800 g at +2° C. for 10 min. The supernatants were centrifuged at 12000 g at +2° C. for 10 min, and the pellets were rehomogenized in 0.32M sucrose to the original volume. The incubation of the preparations with [^14 C]serotonin plus [^3 H]noradrenaline with final concentrations of 50 nM of each amine was performed in a Micronic PPN Storage-Block-96 (Flow Laboratories) with 8×12 wells using two rows at each incubation. Four to five different concentrations of two test compounds in duplicates were examined at each incubation. Fifty microliters of the synaptosomal preparation, 400 μl of the Krebs-Henseleit's buffer, pH 7.4, containing 5.6 mM glucose, 1.1 mM ascorbic acid, 0.13 mM disodium edetate, and 50 μM pargyline, and 25 μl of the inhibitor or distilled water were added to the wells. The solutions were mixed by vortexing the block for 10 s. After 10-min preincubation at 37° C. in a water bath, 25 μl of the solutions of the radioactively labeled amines was added to the two rows with a Titretec Multicannel Pipette, type 12-Channel (Flow Laboratories). The reaction was immediately started by vortexing the block for 10 s on a Super-Mixer, and the incubation was continued for 2 min at 37° C. The uptake reaction was stopped by filtration and washing for 15 s with ice-cold 0.15M NaCl through a Whatman GF/B glass filter paper in a 24-channel Cell Harvester (Brandel) using the standard harvesting probe. The filters were left to dry in room temperature for about 1 h. The punched filters were transformed to counting vials, 10 mL of the scintillation liquid (Aquasol, NEN) was added, and vials were shaken and allowed to stand for 1 h before counting. The radioactivety was measured in a Packard Tri Carb liquid scintillation photometer. The active uptake of the amines was defined as the difference between the accumulation of the radioactivity in the absence (quadriplicates) and the presence (quadriplicates) of selective uptake inhibitors, determined at each incubation. These inhibitors were citalopram (0.3 μM) for the serotonin uptake and maprotiline (1 μM) for the norepinephrine uptake. The inhibition was calculated in percent of the active uptake. The IC50 values were obtained from log concentration-response curves.

[3] = system: synaptosomal uptake, serotonin; assay: Inhibition of synaptosomal uptake of serotonin; format: biochemical; details: rat cerebral cortex synaptosomes, 50 nM [14C]serotonin, pH 7.4, 37° C.
Protocol: as §1, §2

central nervous system = details: man; U.S. Pat. No. 4 237 311; cited from earlier work
[4] = system: neuronal 5-hydroxytryptamine (5-HT) uptake; details: U.S. Pat. No. 4 237 311; cited from earlier work
cholinergic responses = details: U.S. Pat. No. 4 469 707; cited from earlier work
[5] = ip, i.p. 30 min before oxotremorine s.c., p<0.05, scored 5-60 min, read-out: Potentiation of OTMN tremor in rat (lowest dose causing a significant potentiation)
[6] = ip, read-out: Potentiation of OTMN tremor in rat (lowest dose causing a significant potentiation), i.p. 30 min before oxotremorine s.c., p<0.05, scored 5-60 min
[7] = i.p. 30 min before oxotremorine s.c., p<0.05, scored 5-60 min

Row | Compound | minimal effective dose [1, 5] [mg/kg] | pEC50 [2] | pEC50 [3] | minimal effective dose [1, 6] [mg/kg] | also measured
1 | CCCC(N)C(=O)OC(C)(C)Cc1ccc(F)cc1 (centres unmarked) [Example 3, 1-(4-fluoropnenyl)-2-methyl-2-propyl 2-aminopentanoate] | 10 | 5.49 | 5.22 | – | –
2 | CC(C)C(N)C(=O)OC(C)(C)Cc1cc(Cl)cc(Cl)c1 (centres unmarked) [Example 14, 1-(3,5-Dichlorophenyl)-2-methyl-2-propyl 2-amino-3-methylbutanoate] | 10 | < 5.00 | 5.40 | – | –
3 | CC(C)C(N)C(=O)OC(C)(C)Cc1ccc(Cl)cc1 (single isomer, unassigned; (+)) [Example 26, (+)-1-(4-Chlorophenyl)-2-methyl-2-propyl 2-amino-3-methylbutanoate] | – | 5.74 | 5.06 | 20 | –
4 | C=CCC(N)C(=O)OC(C)(C)Cc1ccc(Cl)cc1 (centres unmarked) [Example 5, 1-(4-Chlorophenyl)-2-methyl-2-propyl 2-amino-4-pentenoate] | 20 | 5.60 | 5.44 | – | –
5 | CC(C)CC(N)C(=O)OC(C)(C)Cc1ccc(Cl)cc1 (centres unmarked) [Example 11, 1-(4-Chlorophenyl)-2-methyl-2-propyl 2-amino-4-methylpentanoate] | – | 5.47 | 5.10 | 10 | –
6 | CCC(N)C(=O)OC(C)(C)Cc1ccc(F)cc1 (centres unmarked) [Example 2, 1-(4-fluorophenyl)-2-methyl-2-propyl 2-aminobutanoate] | – | 5.15 | 5.52 | 10 | –
7 | C#CCC(N)C(=O)OC(C)(C)Cc1ccc(Cl)cc1 (centres unmarked) [Example 7, 1-(4-Chlorophenyl)-2-methyl-2-propyl 2-amino-4-pentynoate] | 10 | < 5.00 | < 5.00 | – | –
8 | CCCC(N)C(=O)OC(C)(C)Cc1ccc(Cl)cc1 (centres unmarked) [Example 4, 1-(4-Chlorophenyl)-2-methyl-2-propyl 2-aminopentanoate] | 2.5 | 5.82 | 5.64 | – | –
9 | 1-(4-Chlorophenyl)-2-methyl-2-propyl SS/RS-2-amino-3-methylpentanoate [Example 15] | – | 5.51 | 5.10 | – | Potentiation of OTMN tremor in rat (lowest dose causing a significant potentiation) [1, 7]: 10 mg/kg
10 | CCC(N)C(=O)OC(C)(C)Cc1ccc(Cl)cc1 (centres unmarked) [Example 1, 1-(4-Chlorophenyl)-2-methyl-2-propyl 2-aminobutanoate] | – | 5.10 | 5.55 | 2.5 | –
11 | CC(C)C(N)C(=O)OC(C)(C)Cc1ccc(Cl)cc1 (single isomer, unassigned) [Example 27, 1-(4-chlorophenyl)-2-methyl-2-propyl 2-amino-3-methyl-butanoate] | – | 5.77 | 5.48 | – | Potentiation of OTMN tremor in rat (lowest dose causing a significant potentiation) [1, 7]: 10 mg/kg
12 | CC(N)C(=O)OC(C)(C)Cc1ccc(Cl)cc1 (centres unmarked) [Alaproclate, reference compound] | – | < 5.00 | 6.92 | 5 | tremor response induced by a threshold dose of oxotremorine (in words) ([1]; threshold dose of oxotremorine): enhance the tremor response; antidepressive activity (in words) (central nervous system): antidepressive activity combined with a reduced frequency of side effects; effect on neuronal 5-HT uptake (in words) [4]: blocking the neuronal 5-hydroxytryptamine (5-HT) uptake; effect on cholinergic responses (in words) (cholinergic responses): potentiating effect on cholinergic responses
13 | CC(C)C(N)C(=O)OC(C)(C)Cc1ccc(F)cc1 (centres unmarked) [Example 13, 1-(4-Fluorophenyl)-2-methyl-2-propyl 2-amino-3-methylbutanoate] | 20 | 5.54 | 5.00 | – | –
14 | CCC(C)C(N)C(=O)OC(C)(C)Cc1ccc(Cl)cc1 (centres unmarked) [Example 12, 1-(4-Chlorophenyl)-2-methyl-2-propyl 2-amino-3-methylpentanoate] | – | 5.49 | 5.19 | 20 | –
15 | O=C1CCCN1CC#CCN1CCCC1 [oxotremorine, reference compound] | – | – | – | – | minimal effective dose ([1]; sc, read-out: threshold dose of oxotremorine for eliciting tremor in rat, s.c., oxotremorine alone): 0.2 mg/kg
